Source: ChEMBL document CHEMBL5523673, “Progress in the controllability technology of PROTAC” (Eur J Med Chem, 2024)

Legend:
MCF7 [1] = assay: Antiproliferative activity against human MCF7 cells assessed as reduction in cell viability incubated for 72 hrs by CellTiter-Glo luminescent assay; format: functional, cell-based; conditions: MCF7, 72 h
MCF7 [2] = assay: Cytotoxicity against human MCF7 cells assessed as reduction in cell growth incubated for 72 hrs by CellTiter-Glo luminescent assay; format: functional, cell-based; conditions: MCF7, 72 h
[3] = molecular target: T1, von Hippel-Lindau disease tumor suppressor/Bromodomain-containing protein 4 (Homo sapiens, UniProt O60885+P40337); assay: PROTAC activity at VHL/BRD4 in human MCF7 cells assessed as induction of BRD4 degradation incubated for 18 hrs by Western blotting analysis; format: cell-based
T1 sequence (P40337 whole entry, looked up, other chains not shown): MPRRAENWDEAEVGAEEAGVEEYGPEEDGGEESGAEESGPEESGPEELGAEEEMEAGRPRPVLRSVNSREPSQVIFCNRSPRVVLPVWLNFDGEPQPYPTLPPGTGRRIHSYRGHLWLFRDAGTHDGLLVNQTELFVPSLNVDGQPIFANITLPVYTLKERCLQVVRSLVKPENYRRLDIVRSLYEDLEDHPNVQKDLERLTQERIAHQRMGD

[4] = molecular target: T1, von Hippel-Lindau disease tumor suppressor/Bromodomain-containing protein 4; assay: PROTAC activity at human VHL/BRD4 in human MCF7 cells assessed as maximum degradation of BRD4 measured after 18 hrs by Western blot analysis relative to control; format: cell-based
[5] = molecular target: Protein cereblon/Bromodomain-containing protein 4 (Homo sapiens) (UniProt O60885+Q96SW2); assay: PROTAC activity at CRBN/BRD4 in human NAMALVA cells assessed as maximal degradation at 1 uM incubated for 30 mins by Western blot analysis relative to control; format: cell-based
Chain of Protein cereblon/Bromodomain-containing protein 4 (Homo sapiens) (Q96SW2 whole entry, looked up, other chains not shown): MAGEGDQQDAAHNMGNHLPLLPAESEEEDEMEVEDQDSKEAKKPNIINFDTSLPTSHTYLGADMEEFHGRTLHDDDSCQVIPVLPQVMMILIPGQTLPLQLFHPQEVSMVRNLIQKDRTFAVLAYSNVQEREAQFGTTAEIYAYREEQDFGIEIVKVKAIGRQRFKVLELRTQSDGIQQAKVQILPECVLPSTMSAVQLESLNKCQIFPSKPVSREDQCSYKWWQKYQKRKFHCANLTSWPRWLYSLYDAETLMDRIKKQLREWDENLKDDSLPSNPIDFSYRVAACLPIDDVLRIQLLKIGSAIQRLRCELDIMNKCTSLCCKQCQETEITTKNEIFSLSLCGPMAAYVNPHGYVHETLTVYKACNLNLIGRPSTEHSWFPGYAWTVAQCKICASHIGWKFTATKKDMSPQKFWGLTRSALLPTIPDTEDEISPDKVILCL

OVCAR-8 = assay: Antiproliferative activity against human OVCAR-8 cells assessed as reduction in cell viability incubated for 72 hrs by CCK-8 assay; format: functional, cell-based; conditions: OVCAR-8, 72 h
T47D = assay: Antiproliferative activity against human T47D cells assessed as reduction in cell viability incubated for 72 hrs by CCK-8 assay; format: functional, cell-based
[6] = Antiproliferative activity against human HFF-1 cells assessed as reduction in cell viability incubated for 72 hrs by CCK-8 assay; format: toxicity, cell-based
[7] = Antiproliferative activity against human HK-2 cells assessed as reduction in cell viability incubated for 72 hrs by CCK-8 assay; format: toxicity, cell-based
[8] = Antiproliferative activity against mouse 3T3 cells assessed as reduction in cell viability incubated for 72 hrs by CCK-8 assay; format: toxicity, cell-based; conditions: NIH3T3 cells
[9] = molecular target: T1, von Hippel-Lindau disease tumor suppressor/Bromodomain-containing protein 4; assay: PROTAC activity at human VHL/BRD4 in human HeLa cells assessed as maximal degradation of BRD4 incubated for 24 hrs by Western blot analysis relative to control; format: cell-based
[10] = molecular target: Epidermal growth factor receptor (Homo sapiens, UniProt P00533); assay: Inhibition of EGFR (unknown origin)
Chain of Epidermal growth factor receptor (P00533 whole entry): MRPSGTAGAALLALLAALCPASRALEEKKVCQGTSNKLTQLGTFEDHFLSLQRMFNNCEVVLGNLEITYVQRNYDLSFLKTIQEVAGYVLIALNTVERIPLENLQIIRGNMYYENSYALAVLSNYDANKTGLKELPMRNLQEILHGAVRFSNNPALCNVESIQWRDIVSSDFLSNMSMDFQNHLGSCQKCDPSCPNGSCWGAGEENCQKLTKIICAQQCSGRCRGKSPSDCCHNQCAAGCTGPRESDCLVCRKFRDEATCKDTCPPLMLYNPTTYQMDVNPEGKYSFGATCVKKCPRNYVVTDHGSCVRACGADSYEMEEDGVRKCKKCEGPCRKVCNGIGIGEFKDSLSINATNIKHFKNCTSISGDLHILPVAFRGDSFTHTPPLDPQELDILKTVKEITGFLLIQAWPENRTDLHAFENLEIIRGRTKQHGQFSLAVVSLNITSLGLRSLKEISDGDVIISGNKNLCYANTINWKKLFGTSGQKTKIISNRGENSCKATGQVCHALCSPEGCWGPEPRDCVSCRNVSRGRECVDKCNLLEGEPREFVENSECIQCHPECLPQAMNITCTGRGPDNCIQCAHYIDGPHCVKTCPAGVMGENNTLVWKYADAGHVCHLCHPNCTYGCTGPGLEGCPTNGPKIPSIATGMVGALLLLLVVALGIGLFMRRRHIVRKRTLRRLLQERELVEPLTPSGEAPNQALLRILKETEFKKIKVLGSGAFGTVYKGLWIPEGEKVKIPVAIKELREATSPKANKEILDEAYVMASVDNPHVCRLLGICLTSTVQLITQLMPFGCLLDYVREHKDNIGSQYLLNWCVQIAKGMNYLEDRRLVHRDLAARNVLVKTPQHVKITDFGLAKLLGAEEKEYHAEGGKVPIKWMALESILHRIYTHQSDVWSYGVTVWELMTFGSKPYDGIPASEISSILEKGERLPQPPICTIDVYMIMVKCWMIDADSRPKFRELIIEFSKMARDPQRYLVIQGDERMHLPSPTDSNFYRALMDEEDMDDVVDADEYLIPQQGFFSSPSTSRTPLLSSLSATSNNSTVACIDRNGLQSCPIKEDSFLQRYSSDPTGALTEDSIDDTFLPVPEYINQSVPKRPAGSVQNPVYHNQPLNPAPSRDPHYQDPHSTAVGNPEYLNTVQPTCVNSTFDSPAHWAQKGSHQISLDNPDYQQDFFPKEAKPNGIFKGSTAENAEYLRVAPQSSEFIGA

Row | Structure (SMILES) | IC50 (MCF7 [1]) [nM] | IC50 (OVCAR-8) [nM] | IC50 (T47D) [nM] | IC50 at 72 h [6] [nM] | IC50 at 72 h [7] [nM] | IC50 at 72 h [8] [nM] | further results
1 | Cc1sc2c(c1C)C(c1ccc(Cl)cc1)=N[C@@H](CC(=O)NCCCCCN(Cc1ccc(B(O)O)cc1)c1cccc3c1CN(C1CCC(=O)NC1=O)C3=O)c1nnc(C)n1-2 (stereo partly drawn) | 122 | – | – | – | – | – | IC50 (MCF7 [2]): 1020 nM; DC50 [3]: 31.2 nM; Emax [4]: 77.5%
2 | COc1cc(CN(CCCCNC(=O)COc2cccc3c2C(=O)N(C2CCC(=O)NC2=O)C3=O)C(=O)CC2N=C(c3ccc(Cl)cc3)c3c(sc(C)c3C)-n3c(C)nnc32)c([N+](=O)[O-])cc1OC (stereo not drawn) | – | – | – | – | – | – | Emax [5]: 93%
3 | Cc1ncsc1-c1ccc([C@H](C)NC(=O)[C@@H]2C[C@@H](O)CN2C(=O)[C@@H](NC(=O)COCCCOCCNC(=O)C[C@@H]2N=C(c3ccc(Cl)cc3)c3c(sc(C)c3C)-n3c(C)nnc32)C(C)(C)C)cc1 | 120 | 215 | 13 | 1100 | 160 | 210 | –
4 | Cc1ncsc1-c1ccc([C@H](C)NC(=O)[C@@H]2C[C@@H](OC(=O)Cc3ccc(B4OC(C)(C)C(C)(C)O4)cc3)CN2C(=O)[C@@H](NC(=O)COCCCOCCNC(=O)C[C@@H]2N=C(c3ccc(Cl)cc3)c3c(sc(C)c3C)-n3c(C)nnc32)C(C)(C)C)cc1 | – | – | – | – | – | – | Emax [9]: 70%
5 | Cc1ncsc1-c1ccc([C@H](C)NC(=O)[C@@H]2C[C@@H](OC(=O)CCCCn3cc(CNC(=O)CC[C@H](NC(=O)c4ccc(NCc5cnc6nc(N)[nH]c(=O)c6n5)cc4)C(=O)O)nn3)CN2C(=O)[C@@H](NC(=O)COCCCOCCNC(=O)C[C@@H]2N=C(c3ccc(Cl)cc3)c3c(sc(C)c3C)-n3c(C)nnc32)C(C)(C)C)cc1 | – | 297 | 18 | > 10000 | 2100 | 1400 | –
6 | COc1cc2ncnc(N(Cc3ccc([N+](=O)[O-])cc3)c3ccc(F)c(Cl)c3)c2cc1OCCOCCOCCOCCC(=O)Nc1cccc2c1CN(C1CCC(=O)NC1=O)C2=O (stereo not drawn) | – | – | – | – | – | – | IC50 [10]: 3560 nM
